According to patent publication US20220323406A1, “METHODS AND COMPOSITIONS FOR DIFFERENTIATING STEM CELLS” (Massachusetts Institute of Technology, priority 2019, published 2022):
Entries after “also recorded” stand apart in the source; their conditions may differ.

Tests used:
[1] = tested on: ENR+CD organoids (ISC to Paneth cell differentiation); assay: Primary screen: basal (non-stimulated) lysozyme secretion LYZ.NS, 2.5-D 384-well ENR+CD organoid differentiation; format: cell-based, mouse; details: LYZ.NS and LYZ.S; 0.08-10 uM, 6 days ENR+CD
From the text: High-throughput screening.

[2] = tested on: 3D-cultured intestinal organoids (ENR or ENR+CD); assay: Lysozyme secretion assay (3D culture), normalized to ATP; format: cell-based, mouse; details: 6-day ENR+CD differentiation; for Paneth cell differentiation (functional LYZ secretion), in combination with KPT-330: with KPT-330 (160 nM)
Method: Lysozyme assay (3D culture). ISC-enriched organoids cultured in 3D Matrigel with ENRCV media were passaged to 48-well plate in 3D Matrigel with ENRCV. At day zero, media were replaced to ENR or ENRCD with or without indicated compounds, and media were replaced every other day. At day six, cells were washed twice with basal media and treated with carbamylcholine chloride (Sigma, C4382) for 3 hours. Media were collected and lysozyme activity was measured by EnzChek Lysozyme Assay Kit (ThermoFisher, E22013).
Lysozyme secretion assay. ISC-enriched organoids in 3D Matrigel culture were passaged to a 48- or 96-well plate and cultured with ENR or ENR+CD media containing DMSO or each drug for 6 days. DMSO- or drug-containing media were changed every other day. On day 6, cells were washed with basal media twice and treated with basal media with or without 10 μM carbamoylcholine chloride for 3 h in a CO2 incubator at 37° C. A part of the conditioned media was collected and used for lysozyme assay (Thermo, E-22013) following the manufacturer's instruction. The fluorescence was measured using excitation/emission of 485/530 nm. CellTiter-Glo 3D Reagent (Promega, G9681) was added afterward, and the cell culture plate was incubated on an orbital shaker at RT for 30 min to induce cell lysis and to stabilize the luminescent signal. The solution was replaced to a 96-well white microplate, and luminescent signals were measured by a microplate reader (infinite M200, Tecan). The standard curve was prepared by diluting recombinant ATP (Promega, P1132). For both assays, a polynomial cubic curve was fitted to a set of standard data, and each sample value was calculated on the Microsoft Excel.

| SMILES | primary screen hit call (SSMD and z-scored FC cutoffs in both LYZ assays) [1] | Paneth cell differentiation (functional LYZ secretion), compound alone [2] | Paneth cell differentiation (functional LYZ secretion), in combination with KPT-330 [2] |
| --- | --- | --- | --- |
| COc1cc2c(Nc3ccc(NC(=O)c4ccccc4)cc3)ncnc2cc1OCCCN1CCOCC1 [ZM447439, reference compound] | lower-effect size hit of the primary screen | did significantly increase Paneth cell differentiation |  |
| c1ccc2c(CCNc3ccc(Nc4ccncc4)cc3)c[nH]c2c1 [serdemetan] |  | neither P53 inhibitor altered Paneth cell differentiation | neither P53 inhibitor altered Paneth cell differentiation |
| O=C(c1ccc(F)c(F)c1Nc1ccc(I)cc1F)N1CC(O)([C@@H]2CCCCN2)C1 [cobimetinib] |  | did not significantly alter Paneth cell differentiation | differentiation was enhanced; also recorded: significantly enhance Paneth cell differentiation |
| CC1=C(/C=C/C(=C/C=C/C(C)=C/C(=O)O)c2ccc(C)cc2)C(C)(C)CCC1 [SR11302] |  | also decreases functional LYZ secretion | significantly decreases functional LYZ secretion |
